The record followed here is paper PMC4171606, “A novel copper(I) complex induces ER-stress-mediated apoptosis and sensitizes B-acute lymphoblastic leukemia cells to chemotherapeutic agents” (Oncotarget, 2014).

Holding throughout (type): cell-based, human
Data set [1] has as its system CCRF-CEM (T-acute lymphoblastic leukemia). The data set can be described thus: MTT growth inhibition, 72 h. The settings on record: mean ± SE. As to the method:
(§1) [Cu(thp)4][PF6] (CP) was evaluated for its growth inhibition activity on a panel of twelve different human leukemia cell lines (five B-acute lymphoblastic leukemia, three T-acute lymphoblastic leukemia, three acute myeloid leukemia and one chronic myeloid leukemia). Cells were treated for 72 h with CP and cell viability was evaluated by MTT test. […] This abnormal high expression of proteasomal proteins and mRNA seem to be correlated to the hyperproliferation of these cancer cells and to the sensitivity towards proteasome inhibitors.
(§2) The human leukemia cell lines RS 4;11, SEM, REH, RCH-ACV, MHH-CALL2, Jurkat, CCRF-CEM, HSB2, HL-60, K562, THP-1, MV4;11 were purchased from the American Type Culture Collection. Cells were cultured in RPMI 1640 (Life Technologies, Italy) supplemented with 10% fetal bovine serum (FBS), glutamine (2 mM; Life Technologies, Italy), penicillin (100 U/ml; Life Technologies, Italy) and streptomycin (100 μg/ml; Life Technologies, Italy), and maintained at 37°C in a humidified atmosphere with 5% CO2. The cytotoxic activity of CP was determined using a standard 3-[4,5-dimethylthiazol-2-yl]-2,5-diphenyltetrazodium bromide (MTT) based colorimetric assay (Sigma-Aldrich, Italy). Briefly, cells were seeded at a density of 2×10^4 cells/well in 96-well microtiter plates. After 24 h, cells were exposed to the test compound. After different times, cell survival was determined by the addition of an MTT solution as previously described.

In data set [2] the test system is HL60 (promyelocytic leulemia). The data set can be described thus: MTT growth inhibition, 72 h. To be noted: HL60, 72 h, mean ± SE. Here is the method:
as §1, §2

Data set [3] has as its system HSB-2 (T-acute lymphoblastic leukemia). Nature of the data set: MTT growth inhibition, 72 h. To be noted: HSB-2, 72 h, mean ± SE. Here is the method:
as §1, §2

The subject of data set [4] is Jurkat (T-acute lymphoblastic leukemia). Nature of the data set: MTT growth inhibition, 72 h. The settings on record: mean ± SE. As to the method: as §1, §2
Data set [5] deals with K562 (chronic myeloid leukemia). The data set can be described thus: MTT growth inhibition, 72 h. To be noted: K562, 72 h, mean ± SE. Here is the method: as §1, §2
Data set [6] relates to MHH-CALL2 (B-acute lymphoblastic leukemia). The data set can be described thus: MTT growth inhibition, 72 h. The settings on record: MHH-CALL2, 72 h, mean ± SE. As to the method: as §1, §2
Data set [7] deals with MV4;11 (acute myeloid leukemia). Nature of the data set: MTT growth inhibition, 72 h. To be noted: MV4;11, 72 h, mean ± SE. As to the method: as §1, §2
In data set [8] the test system is RCH-ACV (B-acute lymphoblastic leukemia). Nature of the data set: MTT growth inhibition, 72 h. To be noted: mean ± SE. Here is the method:
as §1, §2

Data set [9] deals with REH (B-acute lymphoblastic leukemia). The data set can be described thus: MTT growth inhibition, 72 h. The settings on record: mean ± SE. Here is the method: as §1, §2
The test system of data set [10] is RS4;11 (B-acute lymphoblastic leukemia). Nature of the data set: MTT growth inhibition, 72 h. The settings on record: RS4;11, 72 h, mean ± SE. As to the method:
as §1, §2

The subject of data set [11] is SEM (B-acute lymphoblastic leukemia). The data set can be described thus: MTT growth inhibition, 72 h. To be noted: mean ± SE. As to the method: as §1, §2
For data set [12], the system named is THP-1 (acute myeloid leukemia). The data set can be described thus: MTT growth inhibition, 72 h. To be noted: THP-1, 72 h, mean ± SE. As to the method: as §1, §2
Data set [13] deals with RS4;11, SEM, Jurkat and THP-1 cell lines and PBMC from healthy donors. Nature of the data set: Cellular uptake, intracellular copper by GF-AAS. The settings on record: 6.25, 12.5 and 25 μM CP, 24 h, leukemic cells vs healthy PBMC. As to the method: In an attempt to correlate the cytotoxic activity of CP with its cellular uptake, the intracellular copper content was evaluated in RS4;11, SEM, Jurkat and THP-1 cell lines and PBMC from healthy donors treated for 24 h with increasing concentrations of CP. The intracellular copper amount (Figure 1, panel A) was quantified by GF-AAS analysis (Graphite Furnace Atomic Absorption Spectrometry).
FIGURE 1 CP uptake and effects on cell cycle and apoptosis induction A) RS4;11, SEM, THP1, Jurkat cell lines and healthy PBMC were incubated with 6.25, 12.5 and 25 μM of CP for 24 h. The intracellular accumulation of CP was detected by GF-AAS analysis. B) SEM and RS4;11 cells were treated with the indicated concentrations of CP for 24 h, cell cycle distribution and Sub-G1 contents were analyzed by flow cytometry after cell staining with PI. The percentages of each phase of the cell cycle (G1, S, G2/M) were calculated on living cells whereas the percentages of cells with hypodiploid DNA content peak (subG1) was referred to cell population characterized by the appearance of subG1 peak. C) SEM and RS4;11 cells were incubated with 2.5 μM CP for the indicated times and analyzed by flow cytometry after double staining with Annexin-V-FITC and PI. Data are represented as mean ± S.E.M. of three independent experiments. […]

In a further data set the test system is SEM and RS4;11 cells. The data set can be described thus: Annexin-V-FITC/PI flow cytometry (apoptosis). The settings on record: CP 2.5 μM, both cell lines. As to the method: FIGURE 1 CP uptake and effects on cell cycle and apoptosis induction A) RS4;11, SEM, THP1, Jurkat cell lines and healthy PBMC were incubated with 6.25, 12.5 and 25 μM of CP for 24 h. The intracellular accumulation of CP was detected by GF-AAS analysis. B) SEM and RS4;11 cells were treated with the indicated concentrations of CP for 24 h, cell cycle distribution and Sub-G1 contents were analyzed by flow cytometry after cell staining with PI. The percentages of each phase of the cell cycle (G1, S, G2/M) were calculated on living cells whereas the percentages of cells with hypodiploid DNA content peak (subG1) was referred to cell population characterized by the appearance of subG1 peak. C) SEM and RS4;11 cells were incubated with 2.5 μM CP for the indicated times and analyzed by flow cytometry after double staining with Annexin-V-FITC and PI. Data are represented as mean ± S.E.M. of three independent experiments.
To characterize the mode of cell death induced by CP, we performed a cytofluorimetric analysis using PI and Annexin-V-FITC, which stain DNA and phosphatidylserine residues, respectively. After a time course of 1.5, 3, 6, 12 and 24 h of drug treatment (2.5 μM), SEM and RS4;11 cells were labeled with the two dyes and analyzed by flow cytometry. […]
On the technique in general: A flow cytometer gives signals particle by particle.

The term GI50 denotes the concentration giving 50% growth inhibition. Low values mean more potent growth inhibition, high ones less potent growth inhibition.

The structures appear in SMILES notation. Some results are limits rather than exact numbers.

As to `F[P-](F)(F)(F)(F)F.OCP(CO)CO.OCP(CO)CO.OCP(CO)CO.OCP(CO)CO.[Cu+]` [CP, [Cu(thp)4][PF6]], the GI50 in data set [1] worked out at 3.9 ± 0.22 µM; in [2], 12.1 ± 2.8 µM; in data set [3] it was 15.1 ± 0.26 µM; in data set [4], 16.7 ± 2.6 µM; in [5], 23.2 ± 1 µM; in [6], 1.9 ± 0.1 µM. The GI50 in [7] is 1.2 ± 0.2 µM; in [8] it was 0.9 ± 0.2 µM; in data set [9] it was 4.2 ± 0.2 µM; in data set [10] it was 0.3 ± 0.01 µM; in data set [11] it was 1.6 ± 0.06 µM; in data set [12] it was 17.2 ± 1 µM. For the same compound, in data set [13], the intracellular copper content result is recorded as “marked increase of copper intracellular content in comparison with healthy PBMC”. Besides, the “onset of significant levels of Annexin-V positive cells” value in the data set with SEM and RS4;11 cells is no less than 6 h.
